The test system of this experiment is M17_3TAU(P301L) cells. Put plainly: TAU-induced cytotoxicity (LDH) in the neuroblastoma tauopathy model. The format is cell-based. The settings on record: Homo sapiens, 168 h, inhibition of TAU-induced toxicity, 7 days retinoic acid differentiation, LDH readout. The source says: A TAU expression plasmid was constructed by sub-cloning the cDNA encoding for human TAU-P301L protein, wherein proline at position 301 is substituted by a leucine residue, into mammalian expression vector pcDNA3.1 resulting in the plasmid pcDNA3.1-TAUP301L. Plasmids pcDNA3.1 and pcDNA3.1-TAU P301L were transfected into human neuroblastoma cells (BE-M17; ATCC No. CRL-2267™) using lipofectamine reagent and subsequently, independent clonal cell lines with the plasmids stably integrated into the genome were selected by antibiotic resistance selection (Geneticin (G418)), resulting in cell lines M17.pcDNA3 and M17_3TAUP301L. Expression of the TAUP301 L gene in the M17_3TAUP301 L cells was confirmed by Western blot analysis.
Differentiation of the cells with RA leads to phosphorylation and subsequent aggregation of TAU, inducing a tauopathy in these cells. Cytotoxicity of cells was measured by quantification of lactate dehydrogenase (LDH) levels. In dead cells LDH is leaked out of the cells into the medium due to a loss of plasma-membrane integrity.
Briefly, 3 days preceding the experiment pre-cultures of M17.pcDNA3 and M17_3TAU(P301L) cells were prepared, starting from a stock culture, at a density of 50.000-100.000 cells/cm2 in detection medium (Optimem Reduced Serum without phenol red (Gibco, Cat. 31985-047) supplemented with 1% fetal calf serum (FCS), 1 mM sodium pyruvate, 1×non-essential amino acids (NEAA), 500 μg/ml G418 and 0.5×antibiotic/antimycotic (ABAM)). At the day of the experiment these precultures were diluted to ˜[…] in detection medium without FCS and 60 μL of this suspension is dispensed per well into a 96-well microtiter plate. After 3 hours of incubation at 37° C./5% C02 an equal volume of detection medium containing 2.5 μM RA was added and subsequently incubated for 7 days at 37° C./5% CO2. After 7 days, LDH activity was determined using the Promega Cytotox 96 Non-Radioactive cytotoxicity assay (Cat. G1780), according the manufacturer's instructions. Cytotoxicity is measured as the ratio of LDH increase in the supernatant divided by the LDH increase in the total cell suspension (sum of the LDH measured in cells and supernatant). Toxicity was determined after 7 days of differentiation with retinoic acid in M17_3TAU(P301 L) cells compared to M17.pcDNA3 cells.
The M17_3TAU(P301L) cell line makes it possible to assess the ability of novel compounds to inhibit TAU-induced cytotoxicity. […] Compounds were tested for their ability to hamper TAU-induced toxicity at different concentrations, ranging from low non-effective concentrations to high potent concentrations. Afterwards, the dose-dependent inhibition curve was used to calculate their EC50 (Table 3B).

The structures appear in SMILES notation.

One may read the EC50 as the concentration needed to bring the measured effect to its halfway point.

`O=C(Cc1ccc(Cl)cc1)N1CC2(CN(Cc3ccccc3OC(F)(F)F)C2)C1` [Cpd B034, 2-(4-chlorophenyl)-1-(6-(2-(trifluoromethoxy)benzyl)-2,6-diazaspiro[3.3]heptan-2-yl)ethanone] registered an EC50 of 6.04 nM.

The molecule `COC(=O)c1ccc(CN2CC3(C2)CN(C(=O)Cc2ccc(Cl)cc2)C3)cc1` [Cpd B035, methyl 4-((6-(2-(4-chlorophenyl)acetyl)-2,6-diazaspiro[3.3]heptan-2-yl)methyl)benzoate] registered a concentration for a half-maximal effect (EC50) of 6.06 nM.

The molecule `COc1cc(OC)nc(CN2CC3(C2)CN(C(=O)Cc2ccc(Cl)cc2)C3)n1` [Cpd B036, 2-(4-chlorophenyl)-1-(6-((4,6-dimethoxypyrimidin-2-yl)methyl)-2,6-diazaspiro[3.3]heptan-2-yl)ethanone] displayed an EC50 of 17.6 nM.

For `CC(c1cccc(C(F)(F)F)c1)N1CC2(CN(C(=O)Cc3ccc(Cl)cc3)C2)C1` (centres unmarked) [Cpd B037, 2-(4-chlorophenyl)-1-(6-(1-(3-(trifluoromethyl)phenyl)ethyl)-2,6-diazaspiro[3.3]heptan-2-yl)ethanone], the concentration for a half-maximal effect (EC50) came to 5.41 nM.

On to `Cc1cccc(CN2CC3(C2)CN(C(=O)Cc2ccc(Cl)cc2)C3)n1` [Cpd B038, 2-(4-chlorophenyl)-1-(6-((6-methylpyridin-2-yl)methyl)-2,6-diazaspiro[3.3]heptan-2-yl)ethanone], for which a half-maximal effect (EC50) was put at 13.9 nM.

For `O=C(Cc1ccc(Cl)cc1)N1CC2(CN(Cc3ncc(Cl)cn3)C2)C1` [Cpd B039, 2-(4-chlorophenyl)-1-(6-((5-chloropyrimidin-2-yl)methyl)-2,6-diazaspiro[3.3]heptan-2-yl)ethanone], the response was half-maximal at 56.3 nM (EC50).

`O=C(Cc1ccc(Cl)cc1)N1CC2(CN(Cc3ccc(C(F)(F)F)o3)C2)C1` [Cpd B040, 2-(4-Chloro-phenyl)-1-[6-(5-trifluoromethyl-furan-2-ylmethyl)-2,6-diaza-spiro[3.3]hept-2-yl]-ethanone] returned an EC50 of 40.4 nM.

For `Cc1cc(CN2CC3(C2)CN(C(=O)Cc2ccc(Cl)cc2)C3)no1` [Cpd B041, 2-(4-chlorophenyl)-1-(6-((5-methylisoxazol-3-yl)methyl)-2,6-diazaspiro[3.3]heptan-2-yl)ethanone], it took 141 nM to reach a half-maximal effect (EC50).

In the case of `CCCN1CC2(C1)CN(C(=O)Cc1ccc(Cl)cc1)C2` [Cpd B042, 2-(4-chlorophenyl)-1-(6-propyl-2,6-diazaspiro[3.3]heptan-2-yl)ethanone], a half-maximal effect (EC50) was put at 32.8 nM.

The molecule `O=C(Cc1ccc(Cl)cc1)N1CC2(CN(Cc3cscn3)C2)C1` [Cpd B043, 2-(4-chlorophenyl)-1-(6-(thiazol-4-ylmethyl)-2,6-diazaspiro[3.3]heptan-2-yl)ethanone] displayed an EC50 of 79.5 nM.

Molecule `O=C(Cc1ccc(Cl)cc1)N1CC2(CN(CCc3cccc(C(F)(F)F)c3)C2)C1` [Cpd B044, 2-(4-chlorophenyl)-1-(6-(3-(trifluoromethyl)phenethyl)-2,6-diazaspiro[3.3]heptan-2-yl)ethanone] displayed an EC50 of 16.1 nM.

As for `O=C(Cc1ccc(Cl)cc1)N1CC2(CN(CCc3cccc(F)c3)C2)C1` [Cpd B045, 2-(4-chlorophenyl)-1-(6-(3-fluorophenethyl)-2,6-diazaspiro[3.3]heptan-2-yl)ethanone], the midpoint of the response, the EC50, lay at 11.6 nM.

On to `COc1ccc(CCN2CC3(C2)CN(C(=O)Cc2ccc(Cl)cc2)C3)cc1` [Cpd B046, 2-(4-chlorophenyl)-1-(6-(4-methoxyphenethyl)-2,6-diazaspiro[3.3]heptan-2-yl)ethanone], for which a half-maximal effect (EC50) was put at 4.11 nM.

As to `Cc1ccc(CCN2CC3(C2)CN(C(=O)Cc2ccc(Cl)cc2)C3)cc1` [Cpd B047, 2-(4-chlorophenyl)-1-(6-(4-methylphenethyl)-2,6-diazaspiro[3.3]heptan-2-yl)ethanone], the EC50 came out at 13.6 nM.

In turn, `O=C(Cc1ccc(Cl)cc1)N1CC2(CN(CCc3ccc(F)cc3)C2)C1` [Cpd B048, 2-(4-chlorophenyl)-1-(6-(4-fluorophenethyl)-2,6-diazaspiro[3.3]heptan-2-yl)ethanone] came in with a half-maximal effective concentration (EC50) of 8.85 nM.

The molecule `Cc1cccc(CCN2CC3(C2)CN(C(=O)Cc2ccc(Cl)cc2)C3)c1` [Cpd B049, 2-(4-chlorophenyl)-1-(6-(3-methylphenethyl)-2,6-diazaspiro[3.3]heptan-2-yl)ethanone] yielded an EC50 of 12.4 nM.

Molecule `CC(C)(C(=O)c1ccccc1)N1CC2(CN(C(=O)Cc3ccc(Cl)cc3)C2)C1` [Cpd B050, 2-(6-(2-(4-chlorophenyl)acetyl)-2,6-diazaspiro[3.3]heptan-2-yl)-2-methyl-1-phenylpropan-1-one] came in with an EC50 of 72.8 nM.

`Cc1cccc(CCN2CC3(C2)CN(C(=O)Cc2ccc(Cl)cc2)C3)n1` [Cpd B051, 2-(4-chlorophenyl)-1-(6-(2-(6-methylpyridin-2-yl)ethyl)-2,6-diazaspiro[3.3]heptan-2-yl)ethanone] gave an EC50 of 30.7 nM.

The molecule `O=C(Cc1ccc(Cl)cc1)N1CC2(CN(CCc3ccccc3)C2)C1` [Cpd B052, 2-(4-chlorophenyl)-1-(6-phenethyl-2,6-diazaspiro[3.3]heptan-2-yl)ethanone] had an EC50 of 15.9 nM.

As for `CC(C)CCN1CC2(C1)CN(C(=O)Cc1ccc(Cl)cc1)C2` [Cpd B053, 2-(4-chlorophenyl)-1-(6-isopentyl-2,6-diazaspiro[3.3]heptan-2-yl)ethanone], a half-maximal effect (EC50) was put at 5.07 nM.

`CC(Cc1ccccc1)N1CC2(CN(C(=O)Cc3ccc(Cl)cc3)C2)C1` (centres unmarked) [Cpd B054, 2-(4-chlorophenyl)-1-(6-(1-phenylpropan-2-yl)-2,6-diazaspiro[3.3]heptan-2-yl)ethanone] registered an EC50 of 19.2 nM.

As for `O=C(Cc1ccc(Cl)cc1)N1CC2(CN(Cc3ccc(F)c(F)c3)C2)C1` [Cpd B055, 2-(4-chlorophenyl)-1-(6-(3,4-difluorobenzyl)-2,6-diazaspiro[3.3]heptan-2-yl)ethanone], the EC50 was found to be 5.13 nM.

The molecule `O=C(Cc1ccc(Cl)cc1)N1CC2(CN(CC3CCCCC3)C2)C1` [Cpd B056, 2-(4-chlorophenyl)-1-(6-(cyclohexylmethyl)-2,6-diazaspiro[3.3]heptan-2-yl)ethanone] displayed an EC50 of 1.44 nM.

The molecule `O=C(Cc1ccc(Cl)cc1)N1CC2(CN(CCC3CCCCC3)C2)C1` [Cpd B057, 2-(4-chlorophenyl)-1-(6-(2-cyclohexylethyl)-2,6-diazaspiro[3.3]heptan-2-yl)ethanone] showed a 50% effective concentration (EC50) of 1.58 nM.

`COc1ccccc1CCCN1CC2(C1)CN(C(=O)Cc1ccc(Cl)cc1)C2` [Cpd B058, 2-(4-chlorophenyl)-1-(6-(3-(2-methoxyphenyl)propyl)-2,6-diazaspiro[3.3]heptan-2-yl)ethanone]: the midpoint of the response, the EC50, lay at 1.72 nM.

In turn, `COc1ccc(CCCN2CC3(C2)CN(C(=O)Cc2ccc(Cl)cc2)C3)cc1` [Cpd B059, 2-(4-chlorophenyl)-1-(6-(3-(4-methoxyphenyl)propyl)-2,6-diazaspiro[3.3]heptan-2-yl)ethanone] registered an EC50 of 1.23 nM.

The molecule `COc1ccc(CCCN2CC3(C2)CN(C(=O)Cc2ccc(F)cc2)C3)cc1` [Cpd B060, 2-(4-Fluoro-phenyl)-1-{6-[3-(4-methoxy-phenyl)-propyl]-2,6-diaza-spiro[3.3]hept-2-yl}-ethanone] registered a 50% effective concentration (EC50) of 0.81 nM.

The molecule `O=C(Cc1ccc(Cl)cc1)N1CC2(CN(CCc3ccccc3Cl)C2)C1` [Cpd B062, 1-(6-(2-chlorophenethyl)-2,6-diazaspiro[3.3]heptan-2-yl)-2-(4-chlorophenyl)ethanone] gave a 50% effective concentration (EC50) of 1.08 nM.

In turn, `O=C(Cc1ccc(F)cc1)N1CC2(CN(CCc3ccccc3Cl)C2)C1` [Cpd B063, 1-{6-[2-(2-Chloro-phenyl)-ethyl]-2,6-diaza-spiro[3.3]hept-2-yl}-2-(4-fluoro-phenyl)-ethanone] returned a concentration giving a half-maximal response (EC50) of 3.12 nM.

The molecule `COc1cc(OC)nc(CN2CC3(C2)CN(C(=O)Cc2ccc(F)cc2)C3)n1` [Cpd B064, 1-[6-(4,6-Dimethoxy-pyrimidin-2-ylmethyl)-2,6-diaza-spiro[3.3]hept-2-yl]-2-(4-fluoro-phenyl)-ethanone] had an EC50 of 32.8 nM.

With `CC(c1ccccc1)N1CC2(CN(C(=O)Cc3ccc(Cl)cc3)C2)C1` (centres unmarked) [Cpd B065, 2-(4-chlorophenyl)-1-(6-(1-phenylethyl)-2,6-diazaspiro[3.3]heptan-2-yl)ethanone], the EC50 stood at 3.23 nM.

`O=C(Cc1ccc(F)cc1)NC1CC2(CC(NCc3ccccc3)C2)C1` (centres unmarked) [Cpd B066, N-(6-(benzylamino)spiro[3.3]heptan-2-yl)-2-(4-fluorophenyl)acetamide] showed an EC50 of 130 nM.

The record behind these values is patent US20250388592A1 (REMYND N.V., priority 2022, published 2025).
